Source: the NIST ThermoML archive (doi:10.1016/j.jct.2007.03.005)
± gives the expanded uncertainty stated by the source.

Experiments:
[1] = Molar enthalpy of transition or fusion; conditions: DSC
[2] = DTA

Row | Structure (SMILES) | Molar enthalpy of transition or fusion ([1]; Crystal 1) [kJ/mol] | Normal melting temperature ([2]; Crystal 1) [°C] | Triple point temperature ([2]; Crystal 2) [K] | Molar enthalpy of transition or fusion ([1]; Crystal) [kJ/mol] | Normal melting temperature ([2]; Crystal) [°C] | also measured
1 | N#CCC#N [propanedinitrile] | 10.7 ± 0.46 | 31.89 ± 0.55 | 303.64 ± 2.1 | – | – | Molar enthalpy of transition or fusion ([1]; Crystal 4): 0.43 ± 0.12 kJ/mol; Triple point temperature ([2]; Crystal 3): 294.24 ± 1.1 K; Triple point temperature ([2]; Crystal 4): 260.9 ± 1.6 K
2 | N#CCCCCC#N [hexanedinitrile] | 18 ± 0.64 | 1.89 ± 0.49 | 270.25 ± 1.9 | – | – | –
3 | N#CCCCCCCCC#N [nonanedinitrile] | – | – | – | 18.7 ± 1.1 | -22.01 ± 0.55 | –
4 | N#CCCCCCCC#N [octanedinitrile] | 22 ± 0.62 | -4.22 ± 1.1 | 265.82 ± 2.5 | – | – | –
5 | N#CCCCCCCCCCC#N [undecanodinitrile] | – | – | – | 26 ± 1.7 | -7.01 ± 0.73 | –
6 | N#CCCCCCC#N [heptanedinitrile] | 15 ± 1.7 | -31.4 ± 0.39 | 236.72 ± 1.8 | – | – | –
7 | N#CCCCCCCCCCCC#N [dodecanedinitrile] | – | – | – | 34.3 ± 1.1 | 21.08 ± 0.48 | –
8 | N#CCCCCCCCCC#N [decanedinitrile] | 28.2 ± 0.64 | 8.03 ± 0.46 | 278.02 ± 1.9 | – | – | –
9 | N#CCCCC#N [pentanedinitrile] | – | – | – | 12 ± 0.79 | -31.10 ± 0.5 | –
10 | N#CCCC#N [butanedinitrile] | 3.75 ± 0.46 | 57.11 ± 1.4 | 233.59 ± 0.53 | – | – | Molar enthalpy of transition or fusion ([1]; Crystal 2): 6.09 ± 0.34 kJ/mol
11 | N#CCCCCCCCCCCCCC#N [tetradecanedinitrile] | 40.2 ± 0.95 | 36.40 ± 0.8 | 261.05 ± 0.56 | – | – | Molar enthalpy of transition or fusion ([1]; Crystal 2): 1.77 ± 0.31 kJ/mol
